A short description of data set [1]: Inhibitory concentration required against MKN1 human stomach cancer cell line was determined. It counts as functional, cell-based. The note with it: cancer cell lines.
For data set [2], the system named is Mus musculus. As to the kind of experiment: Antitumor activity was measured as change in body weight on day 10 in mice implanted with B16 melanoma cells at dose of 20 mg/kg/day. The format is functional.
The test system of a further data set is WiDr. As to the kind of experiment: Inhibitory concentration required against WiDr human colon cancer cell line was determined. It counts as functional, cell-based.
Data set [3] has as its system Mus musculus. Briefly: Compound was evaluated for antitumor activity by iv administration against B16 melanoma implanted sc in mice at dose 20 mg/kg/day. It counts as functional.
In another data set the test system is OVCAR-3. Briefly: Inhibitory concentration required against OVCAR-3 human ovarian cancer cell line was determined. The format is functional, cell-based.
A short description of data set [4]: Inhibitory concentration required against Colon320 human colon cancer cell line was determined. It counts as functional, cell-based. The note with it: cancer cell lines.
In a further data set the test system is SK-BR-3. Briefly: Inhibitory concentration required against SK-BR-3 human breast cancer cell line was determined. The format is functional, cell-based.
The subject of another data set is SK-LU-1. Briefly: Inhibitory concentration required against SK-LU-1 human lung cancer cell line was determined. The format is functional, cell-based.
Data set [5] can be described thus: Solubility in saline. It counts as physicochemical. The note with it: read-out: S.
In data set [6] the test system is Mus musculus. As to the kind of experiment: Antitumor activity was measured as change in body weight on day 10 in mice implanted with B16 melanoma cells at dose of 12.5 mg/kg/day. The format is functional.
Data set [7] relates to Mus musculus. Briefly: Compound was evaluated for antitumor activity by iv administration against B16 melanoma implanted sc in mice at dose 12.5 mg/kg/day. The format is functional.
A short description of data set [8]: Ratio of IC50 of docetaxel / IC50 against OVCAR-3 cell line was determined. The format is functional.
A short description of data set [9]: Ratio of IC50 of docetaxel / IC50 against SK-LU-1 cell line was determined. It counts as functional.
Data set [10] relates to Mus musculus. Briefly: Antitumor activity was measured as change in body weight on day 10 in mice implanted with B16 melanoma cells at a dose of 6.3 mg/kg/day. The format is functional.
Data set [11] concerns Mus musculus. As to the kind of experiment: Compound was evaluated for antitumor activity by iv administration against B16 melanoma implanted sc in mice at a dose of 6.3 mg/kg/day. It counts as functional.
Data set [12] can be described thus: Ratio of IC50 of docetaxel / IC50 against Colon 320 cell line was determined. The format is functional, COLO 320.
A short description of data set [13]: Ratio of IC50 of docetaxel / IC50 against SK-BR-3 cell line was determined. It counts as functional.
A short description of data set [14]: Ratio of IC50 of docetaxel / IC50 against WiDr cell line was determined. The format is functional.
The nature of data set [15]: Ratio of IC50 of docetaxel / IC50 against MKN1 cell line was determined. The format is functional, MKN-1.

Each structure is given as a SMILES string. ≈ marks a conversion by molar mass, not a printed value.

On to `CC(=O)O[C@@]12CO[C@@H]1C[C@H](O)[C@@]1(C)C(=O)[C@H](O)C3=C(C)[C@@H](OC(=O)[C@H](O)[C@@H](NC(=O)OC(C)(C)C)c4ccccc4)C[C@@](O)([C@@H](OC(=O)c4ccccc4)[C@H]21)C3(C)C.O.O.O` [DOCETAXEL], for which the IC50 turned out to be 1.7 nM in data set [1]; 0.43 nM in the data set with WiDr; 1.2 nM in the data set with OVCAR-3; 4.8 nM in [4]; 4.7 nM with SK-BR-3; 1.8 nM with SK-LU-1. Also, the Body weight change in the data set on Mus musculus [2] was -13%. Besides, the ILS at 20 mg/kg/day in the data set with Mus musculus [3] amounted to 149%.

On to `CC(=O)O[C@@]12CO[C@@H]1C[C@H](O)[C@@]1(C)C(=O)[C@H](O)C3=C(C)[C@@H](OC(=O)[C@H](OC(=O)OCOC(=O)C[C@@H](N)C(N)=O)[C@@H](NC(=O)OC(C)(C)C)C4CC4)C[C@@](O)([C@@H](OC(=O)c4ccccc4)[C@H]21)C3(C)C`, for which the solubility in [5] was 50000 µg/mL (≈ 52.1 mM). Besides, the Body weight change with Mus musculus [6] is -11.1%. In the data set with Mus musculus [7], this molecule returned an ILS at 12.5 mg/kg/day of 127%.

`CNC(=O)[C@@H](N)CC(=O)OCOC(=O)O[C@@H](C(=O)O[C@H]1C[C@@]2(O)[C@@H](OC(=O)c3ccccc3)[C@@H]3[C@]4(OC(C)=O)CO[C@@H]4C[C@H](O)[C@@]3(C)C(=O)[C@H](O)C(=C1C)C2(C)C)[C@@H](NC(=O)OC(C)(C)C)C1CC1`: in data set [5], the solubility was found to be 10000 µg/mL (≈ 10.3 mM). The Body weight change in the data set on Mus musculus [6] was -0.5%. In addition, the ILS at 12.5 mg/kg/day in the data set on Mus musculus [7] came to 185%.

As to `CC(=O)O[C@@]12CO[C@@H]1C[C@H](O)[C@@]1(C)C(=O)[C@H](O)C3=C(C)[C@@H](OC(=O)[C@H](OC(=O)OCOC(=O)C[C@H](N)C(=O)O)[C@@H](NC(=O)OC(C)(C)C)C4CC4)C[C@@](O)([C@@H](OC(=O)c4ccccc4)[C@H]21)C3(C)C`, in data set [5], the solubility is 1000 µg/mL (≈ 1.04 mM). For the same molecule, the Body weight change in the data set with Mus musculus [6] was found to be 3.3%. In the data set on Mus musculus [7], this molecule gave an ILS at 12.5 mg/kg/day of 212%.

In the case of `CC(=O)O[C@@]12CO[C@@H]1C[C@H](O)[C@@]1(C)C(=O)[C@H](O)C3=C(C)[C@@H](OC(=O)[C@H](O)[C@@H](NC(=O)OC(C)(C)C)C4CC4)C[C@@](O)([C@@H](OC(=O)c4ccccc4)[C@H]21)C3(C)C`, the Ratio is reported as 2.3 in [8]; 1.8 in data set [9]; 23 in data set [12]; 4.3 in data set [13]; 16 in [14]; 1.4 in data set [15]. Also, the IC50 in [1] stood at 1.2 nM; with WiDr, 0.027 nM; with OVCAR-3, 0.52 nM; in data set [4] it was 0.21 nM; with SK-BR-3 it was 1.1 nM; in the data set on SK-LU-1 it was 1 nM. Further, the Body weight change in the data set on Mus musculus [10] was -7.5%. In the data set on Mus musculus [11], the ILS at 6.3 mg/kg/day stood at 187%.

As to `CCOC(=O)[C@@H](N)CC(=O)OCOC(=O)O[C@@H](C(=O)O[C@H]1C[C@@]2(O)[C@@H](OC(=O)c3ccccc3)[C@@H]3[C@]4(OC(C)=O)CO[C@@H]4C[C@H](O)[C@@]3(C)C(=O)[C@H](O)C(=C1C)C2(C)C)[C@@H](NC(=O)OC(C)(C)C)C1CC1`, in data set [5], the solubility was found to be 10000 µg/mL (≈ 10.1 mM). Besides, the Body weight change in the data set with Mus musculus [6] was -2.9%. For the same molecule, the ILS at 12.5 mg/kg/day with Mus musculus [7] came to 213%.

Take `CC(=O)O[C@@]12CO[C@@H]1C[C@H](O)[C@@]1(C)C(=O)[C@H](O)C3=C(C)[C@@H](OC(=O)[C@H](OC(=O)OCOC(=O)C[C@H](N)C(N)=O)[C@@H](NC(=O)OC(C)(C)C)C4CC4)C[C@@](O)([C@@H](OC(=O)c4ccccc4)[C@H]21)C3(C)C`: in data set [5], the solubility is 5000 µg/mL (≈ 5.21 mM). Moreover, the Body weight change in the data set on Mus musculus [6] was -3.2%. The molecule further registered an increase in lifespan (ILS) at 12.5 mg/kg/day in the data set on Mus musculus [7] of 227%.

By IC50 is commonly meant the midpoint of a concentration-inhibition curve. As a reminder, the ILS is the gain in survival time of treated over control animals, in per cent. Read a low ILS as little gain in survival.
